Test results reported in patent publication US9108936B2, “Substituted 4-aminobenzamides as KCNQ2/3 modulators” (GRUENENTHAL GMBH, priority 2012, dated 2015).

Target: T1, KCNQ2/3 channels (Homo sapiens, UniProt O43525+O43526)
T1 construct: expressed in transfected cells; host or cells: CHO-K1
Assay: Fluorescence assay using a voltage sensitive dye (fluorimetry)
Type: cell-based
Conditions: CHO-K1 cells expressing KCNQ2/3; for Emax: plateau effect relative to saturated Retigabine (50 μM), read-out: Fluorimetry % efficacy (retigabine = 100%); for EC50: voltage-sensitive dye, KCl depolarization, read-out: Fluorimetry EC50/IC50
Text: Method I. Fluorescence Assay Using a Voltage Sensitive Dye (Fluorimetry)
The modulation of the KCNQ opening state (and consequently the voltage potential of a cell) by test compounds such as compounds according to the present invention results in an increased or reduced amount of a voltage-sensitive dye in the cytoplasm of the cells tested. These voltage-sensitive dyes are fluorescent dyes and, therefore, are forming the link between cell potential influenced by KCNQ modulation and fluorescence intensity. A KCNQ agonist leads to an opening of the channel, potassium and dye efflux, a following hyperpolarization and a reduction of the inner fluorescence intensity in a kinetic protocol. If applying an ion jump by KCl depolarization, KCNQ agonists increase the ΔF/F value. An antagonist performs vice versa, respectively.
The ‘fluorimetry EC50’ is the half maximum effective concentration (EC50), where the concentration of a drug/compound induces a response halfway between the baseline and maximum plateau effect. In other words, said value represents the concentration of a compound, where 50% of its maximal effect in the fluorimetric assay is observed if the substance concentration is graphed against the corresponding ΔF/F values (for which the calculation method is described below). Therefore, ‘fluorimetry EC50’ is a measure for the compound potency. The compound efficacy is mirrored by ‘fluorimetry % efficacy’ (‘% Efficacy’) and refers to the maximum response achievable by the test compound, i.e. the plateau effect. This drug's plateau effect is related to the plateau effect, which can be achieved by applying a saturated concentration of a reference compound, e.g. Retigabine (50 μM), in independent wells of the same experimental plate or series. A compound showing 100% efficacy is as efficacious as the reference compound (Retigabine) with a saturated concentration.
[…] CHO-K1 cells expressing KCNQ2/3 channels are cultivated adherently at 37° C., 5% CO2 and 95% humidity in cell culture bottles (e.g. 80 cm^2 TC flasks, Nunc) with DMEM-high glucose (Sigma Aldrich, D7777) including 10% FCS (PAN Biotech, e.g. 3302-P270521) or alternatively MEM Alpha Medium (1×, liquid, Invitrogen, #22571), 10% fetal calf serum (FCS) (Invitrogen, #10270-106, heat-inactivated) and the necessary selection antibiotics.
Before being sown out for the measurements, the cells are washed with 1× DPBS buffer Ca^2+/Mg^2+-free (e.g. Invitrogen, #14190-094) and detached from the bottom of the culture vessel by using Accutase (PAA Laboratories, #L11-007) (incubation with Accutase for 15 min at 37° C.). The cell number is determined using a CASY™ cell counter (TCC, Schärfe System). Depending on the optimal density for each individual cell line, 20,000-30,000 cells/well/100 μl are seeded onto 96-well Corning™ CellBIND™ assay plates (Flat Clear Bottom Black Polystyrene Microplates, #3340). Freshly seeded cells are then left to settle for one hour at room temperature, followed by incubation for 24 hours at 37° C., 5% CO2 and 95% humidity.
The voltage-sensitive fluorescent dye from the Membrane Potential Assay Kit (Red™ Bulk format part R8123 for FLIPR, MDS Analytical Technologies™) is prepared by dissolving the contents of one vessel Membrane Potential Assay Kit Red Component A in 200 ml of extracellular buffer (ES buffer, 120 mM NaCl, 1 mM KCl, 10 mM HEPES, 2 mM CaCl2, 2 mM MgCl2, 10 mM glucose; pH 7.4). After removal of the nutrient medium, the cells are washed once with 200 μl of ES buffer, then loaded for 45 min at room temperature in 100 μl of dye solution in the dark.
Fluorescence measurements are carried out in a BMG Labtech FLUOstar™, BMG Labtech NOVOstar™ or BMG Labtech POLARstar™ instrument (525 nm excitation, 560 nm emission, Bottom Read mode). […]

| Emax | EC50 | SMILES |
| --- | --- | --- |
| 163% | 1480 nM | CCSc1cc(N2CCOCC2)cc(C)c1C(=O)NCc1cccc(F)c1 [Example 1, 2-Ethylsulfanyl-N-[(3-fluorophenyl)-methyl]-6-methyl-4-morpholin-4-yl-benzamide] |
| 152% | 483 nM | CCSc1cc(N2CCOCC2)cc(C)c1C(=O)NCc1ccc(Cl)cc1 [Example 2, N-[(4-Chlorophenyl)-methyl]-2-ethylsulfanyl-6-methyl-4-morpholin-4-yl-benzamide] |
| 220% | 335 nM | CCSc1cc(N2CCOCC2)cc(C)c1C(=O)NCCCC(C)(C)C [Example 3, N-(4,4-Dimethyl-pentyl)-2-ethylsulfanyl-6-methyl-4-morpholin-4-yl-benzamide] |
| 200% | 260 nM | CCSc1cc(N2CCOC[C@H]2C)cc(C)c1C(=O)NCc1ccc(Cl)cc1 [Example 4, N-[(4-Chlorophenyl)-methyl]-2-ethylsulfanyl-6-methyl-4-[(3R)-3-methyl-morpholin-4-yl]-benzamide] |
| 246% | 108 nM | CCSc1cc(N2CCOC[C@H]2C)cc(C)c1C(=O)NCCCC(C)(C)C [Example 5, N-(4,4-Dimethyl-pentyl)-2-ethylsulfanyl-6-methyl-4-[(3R)-3-methyl-morpholin-4-yl]-benzamide] |
| 66% | 8800 nM | CC[S+]([O-])c1cc(N2CCOCC2)cc(C)c1C(=O)NCCCC(C)(C)C (stereo not drawn) [Example 7, N-(4,4-Dimethyl-pentyl)-2-(ethylsulfinyl)-6-methyl-4-morpholin-4-yl-benzamide] |
| 88% | 5560 nM | CCS(=O)(=O)c1cc(N2CCOCC2)cc(C)c1C(=O)NCc1ccc(Cl)cc1 [Example 8, N-[(4-Chlorophenyl)-methyl]-2-(ethylsulfonyl)-6-methyl-4-morpholin-4-yl-benzamide] |
| 65% | 9300 nM | CCS(=O)(=O)c1cc(N2CCOCC2)cc(C)c1C(=O)NCCCC(C)(C)C [Example 9, N-(4,4-Dimethyl-pentyl)-2-(ethylsulfonyl)-6-methyl-4-morpholin-4-yl-benzamide] |
| 147% | 1640 nM | COc1cc(N2CCOCC2)cc(C)c1C(=O)NCc1ccc(Cl)cc1 [Example 10, N-[(4-Chlorophenyl)-methyl]-2-methoxy-6-methyl-4-morpholin-4-yl-benzamide] |
| 141% | 1350 nM | CCOc1cc(N2CCOCC2)cc(C)c1C(=O)NCc1ccc(Cl)cc1 [Example 11, N-[(4-Chlorophenyl)-methyl]-2-ethoxy-6-methyl-4-morpholin-4-yl-benzamide] |
| 169% | 369 nM | CCc1cc(N2CCOCC2)cc(C)c1C(=O)NCc1ccc(Cl)cc1 [Example 12, N-[(4-Chlorophenyl)-methyl]-2-ethyl-6-methyl-4-morpholin-4-yl-benzamide] |
| 183% | 217 nM | CCCc1cc(N2CCOCC2)cc(C)c1C(=O)NCc1ccc(Cl)cc1 [Example 13, N-[(4-Chlorophenyl)-methyl]-2-methyl-4-morpholin-4-yl-6-propyl-benzamide] |
| 170% | 552 nM | Cc1cc(N2CCOCC2)cc(C2CC2)c1C(=O)NCc1ccc(Cl)cc1 [Example 15, N-[(4-Chlorophenyl)-methyl]-2-cyclopropyl-6-methyl-4-morpholin-4-yl-benzamide] |
| 194% | 33 nM | Cc1cc(N2CCOCC2)cc(C2CCCC2)c1C(=O)NCc1ccc(Cl)cc1 [Example 16, N-[(4-Chlorophenyl)-methyl]-2-cyclopentyl-6-methyl-4-morpholin-4-yl-benzamide] |
| 169% | 982 nM | Cc1cc(N2CCOCC2)cc(C2CC2)c1C(=O)NCc1ccc(F)cc1 [Example 18, 2-Cyclopropyl-N-[(4-fluorophenyl)-methyl]-6-methyl-4-morpholin-4-yl-benzamide] |
| 185% | 400 nM | Cc1cc(N2CCOCC2)cc(C(F)(F)F)c1C(=O)NCc1ccc(Cl)cc1 [Example 19, N-[(4-Chlorophenyl)-methyl]-2-methyl-4-morpholin-4-yl-6-(trifluoromethyl)-benzamide] |
| 144% | 708 nM | Cc1cc(N2CCOCC2)cc(C(F)F)c1C(=O)NCc1ccc(Cl)cc1 [Example 20, N-[(4-Chlorophenyl)-methyl]-2-(difluoro-methyl)-6-methyl-4-morpholin-4-yl-benzamide] |
| 118% | 626 nM | C=C(C)c1cc(N2CCOCC2)cc(C)c1C(=O)NCc1ccc(C(F)(F)F)cc1 [Example 21, 2-Isopropenyl-6-methyl-4-morpholin-4-yl-N-[[4-(trifluoromethyl)-phenyl]-methyl]-benzamide] |
| 148% | 184 nM | Cc1cc(N2CCOCC2)cc(C(C)C)c1C(=O)NCc1ccc(C(F)(F)F)cc1 [Example 22, 2-Isopropyl-6-methyl-4-morpholin-4-yl-N-[[4-(trifluoromethyl)-phenyl]-methyl]-benzamide] |
| 161% | 139 nM | Cc1cc(N2CCOCC2)cc(C(C)C)c1C(=O)NCc1ccc(OC(F)(F)F)cc1 [Example 23, 2-Isopropyl-6-methyl-4-morpholin-4-yl-N-[[4-(trifluoromethyloxy)-phenyl]-methyl]-benzamide] |
| 134% | 693 nM | Cc1cc(N2CCOCC2)cc(C2CC2)c1C(=O)NCc1ccc(C(F)(F)F)cc1 [Example 24, 2-Cyclopropyl-6-methyl-4-morpholin-4-yl-N-[[4-(trifluoromethyl)-phenyl]-methyl]-benzamide] |
| 144% | 355 nM | Cc1cc(N2CCOCC2)cc(C2CC2)c1C(=O)NCc1ccc(OC(F)(F)F)cc1 [Example 25, 2-Cyclopropyl-6-methyl-4-morpholin-4-yl-N-[[4-(trifluoromethyloxy)-phenyl]-methyl]-benzamide] |
| 156% | 453 nM | Cc1cc(N2CCCC2)cc(C(F)(F)F)c1C(=O)NCc1cccc(F)c1 [Example 26, N-[(3-Fluorophenyl)-methyl]-2-methyl-4-pyrrolidin-1-yl-6-(trifluoromethyl)-benzamide] |
| 197% | 673 nM | Cc1cc(N2CCCCC2)cc(C(F)(F)F)c1C(=O)NCc1cccc(F)c1 [Example 27, N-[(3-Fluorophenyl)-methyl]-2-methyl-4-piperidin-1-yl-6-(trifluoromethyl)-benzamide] |
| 155% | 4660 nM | Cc1cc(N2CCOCC2)cc(C2CC2)c1C(=O)NCC[C@@H](O)C(C)(C)C [Example 28, 2-Cyclopropyl-N-[(3R)-3-hydroxy-4,4-dimethyl-pentyl]-6-methyl-4-morpholin-4-yl-benzamide] |
| 195% | 1810 nM | Cc1cc(N2CCOCC2)cc(C2CC2)c1C(=O)NCC[C@H](O)C(C)(C)C [Example 29, 2-Cyclopropyl-N-[(3S)-3-hydroxy-4,4-dimethyl-pentyl]-6-methyl-4-morpholin-4-yl-benzamide] |
| 212% | 3100 nM | Cc1cc(N2CCOCC2)cc(C(C)C)c1C(=O)NCC[C@@H](O)C(C)(C)C [Example 30, N-[(3R)-3-Hydroxy-4,4-dimethyl-pentyl]-2-isopropyl-6-methyl-4-morpholin-4-yl-benzamide] |
